Results published in patent publication US7892826B2, “Human cell clones having an endogeneous urotensin II receptor” (Janssen Pharmaceutica N.V., priority 2005, dated 2011).
Bridge positions count the residues as written; N and C are the ends. Square brackets hold non-standard residues; d marks the D form. Peptide text beside a SMILES is read from it. Pen = CC(C)(S)[C@H](N)C(=O)O; Orn = NCCC[C@H](N)C(=O)O

Tests used:
[1] = molecular target: T1, endogeneous urotensin II receptor (UT receptor) in 6D9 cells (Homo sapiens, UniProt Q9UKP6); experiment: Calcium mobilization assay (FLIPR, Calcium 3 dye) in 6D9 cells; type: cell-based; settings: 10 nM or 30 nM U-II (FIG. 6)
T1 construct: endogenous in cells; host or cells: 6D9 (ATCC PTA-7749), sub-clone of human rhabdomyosarcoma line SJRH30 (ATCC CRL-2061)
T1 sequence (Q9UKP6 1-389): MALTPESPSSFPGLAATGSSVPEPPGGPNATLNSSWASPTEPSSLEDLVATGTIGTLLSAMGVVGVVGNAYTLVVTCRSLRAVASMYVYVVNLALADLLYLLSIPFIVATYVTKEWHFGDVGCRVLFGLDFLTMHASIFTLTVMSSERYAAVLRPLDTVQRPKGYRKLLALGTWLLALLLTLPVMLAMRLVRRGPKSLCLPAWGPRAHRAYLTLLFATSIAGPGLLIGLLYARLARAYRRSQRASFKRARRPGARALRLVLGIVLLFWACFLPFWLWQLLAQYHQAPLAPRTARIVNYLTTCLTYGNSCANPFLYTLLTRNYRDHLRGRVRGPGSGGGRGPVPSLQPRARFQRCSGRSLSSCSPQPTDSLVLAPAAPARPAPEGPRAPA
Procedure: Calcium mobilization was performed using FLIPR and Calcium 3, a non-wash Ca^2+ dye. Unlike the conventional Ca^2+ dye such as Fluo-3, Fluo-4, and Fura-2/AM, etc., the non-wash Ca^2+ dye was formulated to incorporate extracellular fluorescence quenchers and avoid the need to wash away extracellular Ca^2+ dye after loading the cells with the dye (Monteith and Bird, 2005, supra).
Cells were plated into 96 or 384 well plates and were incubated at 37° C. After the incubation, the growth medium was removed and replaced with HBSS (Hanks Balanced salt solution #21-023-CV, Mediatech, Inc, Herndon, Va.) containing Calcium 3 dye with probenecid.
In addition, the cells survived in cultures for over 3 months (17 passages) and were still responsive to U-II (FIG. 4).

[2] = molecular target: T1, endogeneous urotensin II receptor (UT receptor) in 6D9 cells; experiment: 384-well FLIPR high throughput calcium mobilization assay in 6D9 cells; type: cell-based; settings: 384-format
Procedure: Calcium mobilization was performed using FLIPR and Calcium 3, a non-wash Ca^2+ dye. Unlike the conventional Ca^2+ dye such as Fluo-3, Fluo-4, and Fura-2/AM, etc., the non-wash Ca^2+ dye was formulated to incorporate extracellular fluorescence quenchers and avoid the need to wash away extracellular Ca^2+ dye after loading the cells with the dye (Monteith and Bird, 2005, supra). Cells were plated into 96 or 384 well plates and were incubated at 37° C. After the incubation, the growth medium was removed and replaced with HBSS (Hanks Balanced salt solution #21-023-CV, Mediatech, Inc, Herndon, Va.) containing Calcium 3 dye with probenecid. […] This Example teaches a high throughput approach using FLIPR on a 384-well format. […] Various factors of the FLIPR assay had been tested to minimize the measure variability.

CC(C)[C@H](NC(=O)[C@@H]1CSSC(C)(C)[C@H](NC(=O)[C@@H](N)CC(=O)O)C(=O)N[C@@H](Cc2ccccc2)C(=O)N[C@H](Cc2c[nH]c3ccccc23)C(=O)N[C@@H](CCCN)C(=O)N[C@@H](Cc2ccc(O)cc2)C(=O)N1)C(=O)O [Urantide] (H-D[Pen]F[dW][Orn]YCV-OH; disulfide 2-7)
Block of calcium mobilization coupled to U-II stimulation [1]: blocked the calcium mobilization coupled to U-II stimulation | Dose dependence of response in HTS calcium mobilization assay [2]: dose dependent responses

CC(C)[C@H](NC(=O)[C@@H]1CSSC[C@H](NC(=O)[C@H](CC(=O)O)NC(=O)[C@@H]2CCCN2C(=O)[C@@H](NC(=O)[C@@H](N)CCC(=O)O)[C@@H](C)O)C(=O)N[C@@H](Cc2ccccc2)C(=O)N[C@@H](Cc2c[nH]c3ccccc23)C(=O)N[C@@H](CCCCN)C(=O)N[C@@H](Cc2ccc(O)cc2)C(=O)N1)C(=O)O [hU-II, SEQ ID NO: 2, ETPDCFWKYCV]
Dose dependence of response in HTS calcium mobilization assay [2]: dose dependent responses
